The values below come from patent publication US4073941A, “Aralkyl amides having antidepressive activity” (priority 1975, dated 1978).

Values after ≈ are worked out from the molar mass of the structure shown. Structures can show the parent of a compound that is named as a salt. Where two headings read alike, the source gives them in different places.

Assay [1] deals with 5-HTP induced behavioural syndrome in mice. Briefly: 5-HTP response potentiation test. Format: in vivo. Particulars: Mus musculus, least dose producing maximal score (+3) in all animals, before dl-5-HTP 90 mg/kg i.v. How it is done: 1. 5-HTP response potentiation test
Inhibition of the uptake of 5-HT potentiates the effects of administered 5-hydroxytryptophan (5-HTP) probably by increasing the amount of 5-HT at the receptor. Three mice are given the test drugs 1 hour (or 4, 24 hours) before d1-5-HTP 90 mg/kg i.v. 5-HTP alone gives only a weak behavioural syndrome but in pretreated mice there is seen a characteristic behavioural syndrome, which comes within 5 minutes: tremor, lordosis, abduction of the hindlegs, head-twiches. The strength of the syndrome is scored from 0 to +3. Each group consists of 3 animals and at least 4 groups were tested at 25 mg/kg i.p. Control groups receiving imipramine (Tofranil®) are used as reference, since imipramine constantly potentiated d1-5-HTP. The least dose of the test compound producing maximal score (+3) in all animals is estimated from a logarithmic dose-response curve, and is denoted "effective dose" in the following Table.

The test system of assay [2] is uptake of 14C-5-HT (5-hydroxytryptamine) in brain slices. In words: Inhibition of the uptake of 14C-5-HT in mouse midbrain slices, compound added in vitro. The class given is cell-based, mice. Particulars: 5 min, concentration producing 50 percent decrease of active uptake (ED50), 5-HT 1×10^-7 M, 5 min incubation. How it is done: (§1) 1. Inhibition of the uptake of carbon-14 5-HT and tritiated noradrenaline in vitro and in vivo
(§2) The method is described by Ross, Renyi and Ogren in European Journal of Pharmacology 17 (1972), 107-112. Tricyclic antidepressant drugs of type imipramine added in vitro or given in vivo to mice decrease the uptake of ^14 C-5-HT and ^3 H-NA in vitro. In the in vitro experiments different concentrations of the test compound were added to the incubation medium. In the in vivo experiments different doses of the test drug were administered intraperitoneally half an hour before the animals were killed. The incubation performance was the same in the two types of experiments, i.e. the midbrain was taken out and sliced and incubated in a mixture consisting of, per 100 mg of brain slices, 0.2 n-mole of ^14 C-5-HT, 0.2 n-mole of ^3 H-NA and 11 μmole of glucose in 2 ml of Krebs-Henseleit buffer, pH 7.4. The incubation time was 5 minutes. The radioactive amines taken up in the slices were dissolved in Soluene-350® (Packard) and the amounts were determined with the double labelling technique by liquid scintillation. The concentration or dose producing 50 percent decrease of the active uptake (ED50) was determined graphically from dose-response curves. Active uptake is defined as that part of the radioactive uptake which is inhibited by a high concentration of cocaine. […]

The test system is the same in assay [3]. In words: Inhibition of the uptake of 14C-5-HT in midbrain slices after in vivo i.p. administration to mice. Particulars: Mus musculus, ip, 0.5 h; dose producing 50 percent decrease of active uptake (ED50); i.p. half an hour before killing; 5-HT 1×10^-7 M. How it is done:
as §1
(§3) The method is described by Ross, Renyi and Ogren in European Journal of Pharmacology 17 (1972), 107-112. […] In the in vitro experiments different concentrations of the test compound were added to the incubation medium. In the in vivo experiments different doses of the test drug were administered intraperitoneally half an hour before the animals were killed. The incubation performance was the same in the two types of experiments, i.e. the midbrain was taken out and sliced and incubated in a mixture consisting of, per 100 mg of brain slices, 0.2 n-mole of ^14 C-5-HT, 0.2 n-mole of ^3 H-NA and 11 μmole of glucose in 2 ml of Krebs-Henseleit buffer, pH 7.4. The incubation time was 5 minutes. The radioactive amines taken up in the slices were dissolved in Soluene-350® (Packard) and the amounts were determined with the double labelling technique by liquid scintillation. The concentration or dose producing 50 percent decrease of the active uptake (ED50) was determined graphically from dose-response curves. Active uptake is defined as that part of the radioactive uptake which is inhibited by a high concentration of cocaine. All doses were given at least to four animals.

Assay [4] concerns uptake of 3H-NA (noradrenaline) in brain slices. Briefly: Inhibition of the uptake of 3H-noradrenaline in mouse midbrain slices, compound added in vitro. To be noted: 5 min, read-out: Inhibition (50 %) of uptake in vitro NA. The class given is cell-based, mice. On the procedure:
as §1, §2

Assay [5] shares this test system. Briefly: Inhibition of the uptake of 3H-noradrenaline in midbrain slices after in vivo i.p. administration to mice. To be noted: Mus musculus, ip, 0.5 h; dose producing 50 percent decrease of active uptake (ED50); i.p. half an hour before killing; 1-noradrenaline 1×10^-7 M. How it is done:
as §1, §3

What is called minimal effective dose is the smallest amount tested that counted as effective. As usually defined, the ED50 is the dose that gives a 50% effect, or the effect in half of the subjects. A low value points to greater potency.

With `CC(N)C(=O)NC(C)(C)Cc1ccc(Cl)cc1` (stereo not shown) [GEA 609, 2-amino-N^1 - 3-(4-chlorophenyl)-2-methyl-2-propyl! propanoic acid amide hydrochloride], the minimal effective dose in assay [1] was determined as 0.5 mg/kg. Further, the IC50 was 0.7 µg/mL in assay [2] and > 10 µg/mL in assay [4] (Mus musculus). Besides, the ED50 was 20 mg/kg in assay [3] and > 40 mg/kg in assay [5].

With `CN(C)CCCN1c2ccccc2CCc2ccccc21` [Imipramine, imipramine], the minimal effective dose in assay [1] turned out to be 15 mg/kg. Moreover, the IC50 in assay [2] is 0.1 µg/mL (≈ 0.357 µM); in assay [4] (concentration producing 50 percent decrease of active uptake (ED50), 1-noradrenaline 1×10^-7 M, mouse midbrain slices, 5 min incubation), 0.06 µg/mL (≈ 0.214 µM). The ED50 in assay [3] was found to be 24 mg/kg; in assay [5], 6 mg/kg.
